Structures can show the parent of a compound that is named as a salt. Where two headings read alike, the source gives them in different places.
What was measured:
Set-up in all cases: species or system AML cell lines (8); Primary HTS, single concentration about 10 uM, Cell Titer Glo viability; log10 luminescence, per cent inhibition relative to cycloheximide control
Details in all cases: 72 h, relative to cycloheximide control, log10 luminescence, inhibitor
CHRF288-11 = tested on: CHRF288-11
CMK = tested on: CMK
CMS = tested on: CMS
M07e = tested on: M07e
ML-2 = tested on: ML-2
MOLM-13 = tested on: MOLM-13
MV4-11 = tested on: MV4-11
U937 = tested on: U937

## CC(C)(c1ccc(OCC2CO2)cc1)c1ccc(OCC2CO2)cc1 (stereo not shown) [SJ000546498-1, BADGE]
CHRF288-11
  CHRF288-11 %inh: 3.756%
CMK
  CMK %inh: 0.4379%
CMS
  CMS %inh: -0.9549%
M07e
  M07e %inh: -0.5797%
ML-2
  ML-2 %inh: 0.3622%
MOLM-13
  MOLM-13 %inh: -1.249%
MV4-11
  MV4-11 %inh: 2.685%
U937
  U937 %inh: -0.2101%

## Oc1ccc(-c2c(-c3ccccc3)nn3c(C(F)(F)F)cc(C(F)(F)F)nc23)cc1 [SJ000546500-1, PHTPP]
CHRF288-11
  CHRF288-11 %inh: -1.975%
CMK
  CMK %inh: -2.936%
CMS
  CMS %inh: -0.8785%
M07e
  M07e %inh: -1.02%
ML-2
  ML-2 %inh: -0.1539%
MOLM-13
  MOLM-13 %inh: -1.733%
MV4-11
  MV4-11 %inh: 0.8155%
U937
  U937 %inh: -1.023%

## CCCCCS(=O)(=O)CCCCCCCCCCn1c(-c2ccc(O)cc2)c(C)c2cc(O)ccc21 [SJ000546504-1, ZK 164015]
CHRF288-11
  CHRF288-11 %inh: 8.284%
CMK
  CMK %inh: 21%
CMS
  CMS %inh: 7.105%
M07e
  M07e %inh: 14.67%
ML-2
  ML-2 %inh: 14.83%
MOLM-13
  MOLM-13 %inh: 28.37%
MV4-11
  MV4-11 %inh: 19.87%
U937
  U937 %inh: 10.37%

## CCC[C@@H]1CC2=CC(=O)CC[C@]2(C)[C@H]2CC[C@@]3(C)[C@@H](CC[C@@]34CCC(=O)O4)[C@H]12 [SJ000546508-1, RU 26752]
CHRF288-11
  CHRF288-11 %inh: -0.7374%
CMK
  CMK %inh: -5.773%
CMS
  CMS %inh: 0.3867%
M07e
  M07e %inh: 0.5508%
ML-2
  ML-2 %inh: 2.095%
MOLM-13
  MOLM-13 %inh: -0.802%
MV4-11
  MV4-11 %inh: 1.882%
U937
  U937 %inh: -0.3202%

## CCC[C@@H]1CC2=CC(=O)CC[C@]2(C)[C@H]2CC[C@@]3(C)[C@@H](CC[C@@]3(O)CCC(=O)O)[C@H]12 [SJ000546509-1, RU 28318]
CHRF288-11
  CHRF288-11 %inh: 5.992%
CMK
  CMK %inh: 5.542%
CMS
  CMS %inh: 2.41%
M07e
  M07e %inh: 2.635%
ML-2
  ML-2 %inh: 3.121%
MOLM-13
  MOLM-13 %inh: 5.695%
MV4-11
  MV4-11 %inh: 0.6325%
U937
  U937 %inh: -0.6477%

## COC(=O)/C=C/c1cccc(N(Cc2ccc(-c3ccc(N(C)C)cc3)cc2)C(=O)C2CCCCC2)c1 [SJ000546510-1, FEXARAMINE]
CHRF288-11
  CHRF288-11 %inh: -3.158%
CMK
  CMK %inh: -0.2535%
CMS
  CMS %inh: 0.8467%
M07e
  M07e %inh: 1.611%
ML-2
  ML-2 %inh: 2.174%
MOLM-13
  MOLM-13 %inh: -2.683%
MV4-11
  MV4-11 %inh: -0.6838%
U937
  U937 %inh: -1.175%

## Clc1ccc(-c2nc3sccn3c2/C=N/OCc2ccc(Cl)c(Cl)c2)cc1 [SJ000546521-1, CITCO]
CHRF288-11
  CHRF288-11 %inh: 8.549%
CMK
  CMK %inh: -3.05%
CMS
  CMS %inh: 0.2267%
M07e
  M07e %inh: 0.1835%
ML-2
  ML-2 %inh: -0.03995%
MOLM-13
  MOLM-13 %inh: -1.049%
MV4-11
  MV4-11 %inh: 0.01601%
U937
  U937 %inh: -0.9685%

## Cc1ccc(C(=O)Cn2c3c(sc2=N)CCCC3)cc1 [SJ000546523-1, PIFITHRIN-ALPHA HYDROBROMIDE | PIFITHRIN-ALPHA HYDROBROMIDE | | PIFITHRIN-ALPHA (PFTALPHA)]
CHRF288-11
  CHRF288-11 %inh: 6.15%
CMK
  CMK %inh: 3.731%
CMS
  CMS %inh: 0.7689%
M07e
  M07e %inh: 2.173%
ML-2
  ML-2 %inh: -0.3437%
MOLM-13
  MOLM-13 %inh: 4.765%
MV4-11
  MV4-11 %inh: 4.352%
U937
  U937 %inh: -0.03033%

## CN1C(=O)CC(C)(c2ccccc2)C1=O (stereo not shown) [SJ000552432-1, METHSUXIMIDE]
CHRF288-11
  CHRF288-11 %inh: 16.75%
CMK
  CMK %inh: 0.7754%
CMS
  CMS %inh: -2.292%
M07e
  M07e %inh: 28%
ML-2
  ML-2 %inh: 19.33%
MOLM-13
  MOLM-13 %inh: 28.78%
MV4-11
  MV4-11 %inh: 59.35%
U937
  U937 %inh: 35.22%

## COc1cc2c(cc1OC)C(=O)C(CC1CCN(Cc3ccccc3)CC1)C2 (stereo not shown) [SJ000555704-1, DONEPEZIL HYDROCHLORIDE]
CHRF288-11
  CHRF288-11 %inh: 3.237%
CMK
  CMK %inh: 10.45%
CMS
  CMS %inh: 6.718%
M07e
  M07e %inh: 3.462%
ML-2
  ML-2 %inh: 0.002244%
MOLM-13
  MOLM-13 %inh: 1.714%
MV4-11
  MV4-11 %inh: 4.602%
U937
  U937 %inh: 1.153%

## C[C@]12C=CC(=O)C=C1CC[C@@H]1[C@@H]2[C@@H](O)C[C@@]2(C)[C@H]1CC[C@]2(O)C(=O)COP(=O)(O)O [SJ000555709-1, PREDNISOLONE SODIUM PHOSPHATE]
CHRF288-11
  CHRF288-11 %inh: 1.976%
CMK
  CMK %inh: 1.948%
CMS
  CMS %inh: 9.04%
M07e
  M07e %inh: -1.037%
ML-2
  ML-2 %inh: -0.8263%
MOLM-13
  MOLM-13 %inh: 2.036%
MV4-11
  MV4-11 %inh: 1.456%
U937
  U937 %inh: 2.195%

## Cc1nnc(C(C)C)n1[C@@H]1C[C@H]2CC[C@@H](C1)N2CC[C@H](NC(=O)C1CCC(F)(F)CC1)c1ccccc1 [SJ000555710-1, MARAVIROC]
CHRF288-11
  CHRF288-11 %inh: 3.241%
CMK
  CMK %inh: -4.287%
CMS
  CMS %inh: -2.259%
M07e
  M07e %inh: 0.2532%
ML-2
  ML-2 %inh: -1.344%
MOLM-13
  MOLM-13 %inh: -2.386%
MV4-11
  MV4-11 %inh: 0.334%
U937
  U937 %inh: -1.411%

## CC[C@@H]([C@H](C)O)n1ncn(-c2ccc(N3CCN(c4ccc(OC[C@@H]5CO[C@@](Cn6cncn6)(c6ccc(F)cc6F)C5)cc4)CC3)cc2)c1=O [SJ000555711-1, POSACONAZOLE]
CHRF288-11
  CHRF288-11 %inh: 4.654%
CMK
  CMK %inh: -1.399%
CMS
  CMS %inh: 1.852%
M07e
  M07e %inh: -0.5919%
ML-2
  ML-2 %inh: -0.9552%
MOLM-13
  MOLM-13 %inh: -0.6762%
MV4-11
  MV4-11 %inh: 1.133%
U937
  U937 %inh: 4.703%

## CCOC(=O)C1=C[C@@H](OC(CC)CC)[C@H](NC(C)=O)[C@@H](N)C1 [SJ000555712-1, OSELTAMIVIR PHOSPHATE]
CHRF288-11
  CHRF288-11 %inh: -4.38%
CMK
  CMK %inh: 1.207%
CMS
  CMS %inh: 1.863%
M07e
  M07e %inh: -1.677%
ML-2
  ML-2 %inh: 3.111%
MOLM-13
  MOLM-13 %inh: -1.922%
MV4-11
  MV4-11 %inh: -1.699%
U937
  U937 %inh: -0.7037%

## CC(=O)O[C@H]1C[C@@H]2CC[C@@H]3[C@H](CC[C@@]4(C)[C@H]3C[C@H](N3CC[N+](C)(C)CC3)[C@@H]4OC(C)=O)[C@@]2(C)C[C@@H]1N1CC[N+](C)(C)CC1 [SJ000555714-1, PIPECURIUM BROMIDE]
CHRF288-11
  CHRF288-11 %inh: -2.142%
CMK
  CMK %inh: -9.103%
CMS
  CMS %inh: 0.5876%
M07e
  M07e %inh: -1.4%
ML-2
  ML-2 %inh: 0.08837%
MOLM-13
  MOLM-13 %inh: -1.447%
MV4-11
  MV4-11 %inh: 0.2738%
U937
  U937 %inh: -1.326%

## CC[N+](C)(CC)CCOC(=O)C(O)(c1ccccc1)C1CCCCC1 (stereo not shown) [SJ000555718-1, OXYPHENONIUM BROMIDE]
CHRF288-11
  CHRF288-11 %inh: 89.25%
CMK
  CMK %inh: 0.4248%
CMS
  CMS %inh: -0.491%
M07e
  M07e %inh: -3.166%
ML-2
  ML-2 %inh: 3.325%
MOLM-13
  MOLM-13 %inh: 7.019%
MV4-11
  MV4-11 %inh: 4.785%
U937
  U937 %inh: 4.807%

## CC(C)(C)C(=O)Oc1ccc(S(=O)(=O)Nc2ccccc2C(=O)NCC(=O)O)cc1 [SJ000556638-2, SIVELESTAT SODIUM SALT]
CHRF288-11; CHRF288-11 %inh, 10 µM
  CHRF288-11 %inh: 2.891%
CMK; CMK %inh, 10 µM
  CMK %inh: -3.181%
CMS; CMS %inh, 10 µM
  CMS %inh: 2.093%
M07e; M07e %inh, 10 µM
  M07e %inh: 0.385%
ML-2; ML-2 %inh, 10 µM
  ML-2 %inh: 1.02%
MOLM-13; MOLM-13 %inh, 10 µM
  MOLM-13 %inh: -1.5%
MV4-11; MV4-11 %inh, 10 µM
  MV4-11 %inh: 2.862%
U937; U937 %inh, 10 µM
  U937 %inh: -0.4301%

## CC(C)(C)C(=O)Oc1ccc(S(=O)(=O)Nc2ccccc2C(=O)NCC(=O)O)cc1 [SJ000556638-3, SIVELESTAT SODIUM SALT]
CHRF288-11; CHRF288-11 %inh, 10 µM
  CHRF288-11 %inh: -1.426%
CMK; CMK %inh, 10 µM
  CMK %inh: -2.417%
CMS; CMS %inh, 10 µM
  CMS %inh: -1.314%
M07e; M07e %inh, 10 µM
  M07e %inh: 0.5204%
ML-2; ML-2 %inh, 10 µM
  ML-2 %inh: 0.7785%
MOLM-13; MOLM-13 %inh, 10 µM
  MOLM-13 %inh: -1.044%
MV4-11; MV4-11 %inh, 10 µM
  MV4-11 %inh: -1.916%
U937; U937 %inh, 10 µM
  U937 %inh: -0.2709%

## Cc1ccc(Nc2nccc(N(C)c3ccc4c(C)n(C)nc4c3)n2)cc1S(N)(=O)=O [SJ000556680-2, PAZOPANIB | 786034 | GSK-786034 | GW-786034 | GW-786034B | PAZOPANIB HCL (GW786034 HCL)]
CHRF288-11
  CHRF288-11 %inh: 59.62%
CMK
  CMK %inh: 114.3%
CMS
  CMS %inh: 28.45%
M07e
  M07e %inh: 33.41%
ML-2
  ML-2 %inh: 7.239%
MOLM-13
  MOLM-13 %inh: 85.38%
MV4-11
  MV4-11 %inh: 69.1%
U937
  U937 %inh: 10.79%

## C/C(O)=C(\C#N)C(=O)Nc1ccc(C(F)(F)F)cc1 [SJ000556684-2, TERIFLUNOMIDE]
CHRF288-11
  CHRF288-11 %inh: 13.26%
CMK
  CMK %inh: 2.602%
CMS
  CMS %inh: 4.451%
M07e
  M07e %inh: 0.1279%
ML-2
  ML-2 %inh: 6.049%
MOLM-13
  MOLM-13 %inh: 8.514%
MV4-11
  MV4-11 %inh: 2.233%
U937
  U937 %inh: -0.6256%

Source: paper PMC6522510 (Nature Communications, 2019)
